Results published in article PMC10821025, “Bioprospection of Tenellins Produced by the Entomopathogenic Fungus Beauveria neobassiana” (Journal of Fungi, 2024).
Values after ≈ are worked out from the molar mass of the structure shown.

Columns and labels:
[1] = system: mouse fibroblasts (L-929); test: Cytotoxicity assay, L929; assay type: cell-based; conditions: L929 (fibroblast), 5 days of incubation
Protocol: (§1) The cytotoxicity of isolated compounds was determined as previously described over a concentration range between […] against two mammalian cell lines: mouse fibroblasts (L-929) and human endocervical adenocarcinoma (KB-3.1). […] Following 5 days of incubation, we determined the minimum concentration of the tested compounds required to achieve 50% growth inhibition, expressed as IC50 values.

[2] = system: S. aureus (DSM 1104) biofilm formation; test: Biofilm inhibition assay (Crystal Violet staining); assay type: cell-based, Staphylococcus aureus; conditions: for inhibitory activity on S. aureus biofilm formation (in words): 125–7.8 µg/mL; for Biofilm inhibition (% ± SD): S. aureus (DSM 1104); for Biofilm inhibition (% ± SD) / inhibition at 7.8 µg/mL: 7.8 µg/ml; for inhibition at 7.8 µg/mL / inhibition at 15.62 µg/mL / inhibition at 31.25 µg/mL / inhibition at 62.5 µg/mL / inhibition at 125 µg/mL: Staphylococcus aureus, DSM1104, S. aureus (DSM 1104), read-out: Biofilm inhibition (% ± SD)
Protocol: The compounds were evaluated for their ability to inhibit S. aureus (DSM 1104) biofilm formation, following the established procedure. Briefly, serially diluted compounds (125–7.8 µg/mL) were co-incubated with S. aureus in 96-well plates in CASO medium supplemented with 4% of glucose (see Supplementary Materials). Biofilm inhibition was assessed by using Crystal Violet staining after […], with microporenic acid A serving as a positive control and methanol as solvent control.
Biofilm inhibition assays were condu cted acco rding to th e methodolo g y previousl y described (Soliga et al., 2021), targeting the inhibition of biofilm formation in Staphylococcus aureus […]
S. aureus were cultured i n LB and CASO medium at 37 °C for 18 h, respect ivel y, in a shaker at 120 rpm after being thawed from a -20 °C stock solution. The culture's optical densit y at 600 nm (OD600) was measured and adjusted to a 0.1 McFarland standard in M63 minimal medium supplemented with necessar y nutrients and CASO medi um with 4% glucose for S. aureus, respectively. Microtiter plates were loaded with 150 µL of the bacterial suspension containing s eriall y diluted test compounds (7.8 -125 µg/m L) and incubated for 24 h at 37 °C. The evaluation of biofilm inhibition was performed by staining the biofilm with 0.1% cr ystal violet (CV). After staining, the plates were washed, and the biofilm dissolved in 95% ethanol. The absorbance of the dissolved biofilm was measured at 530 nm using a plat e reader. Negative control involved methanol (2.5%) while microporenic acid A at a concentration range of 7.8 to 125 µg/mL were used as the positive control for S. aureus (Chepkirui et al., 2018). All experiments were performed three times, and the standard deviation (SD) was maintained at or below 15% for S. aureus .
Differences between sam ples and the control grou p were determined b y a t wo-tailed Student’s t-test. Statistical significan ce was defined as p < 0.01. Anal ysis was carri ed out using GraphPad Prism 9® (GraphPad Software, San Diego, CA, USA). […]

[3] = system: human endocervical adenocarcinoma (KB-3.1); test: Cytotoxicity assay, KB3.1; assay type: cell-based; conditions: KB3.1 (endocervical adenocarcinoma), 5 days of incubation
Protocol: as §1

[4] = system: Pseudomonas aeruginosa [PA14]; test: Serial dilution assay (MIC); assay type: cell-based; conditions: read-out: MIC
Protocol: (§2) All isolated compounds were assessed for their antimicrobial activity using a serial dilution assay over a concentration range from 67 to 0.5 µg/mL following the previously described protocols. In brief, the antimicrobial activity of all isolated metabolites was assessed by determining their minimum inhibitory concentration (MIC) against a range of different pathogens, including five fungal species: Candida albicans [DSM 1665], Mucor hiemalis [DSM 2656], Schizosaccharomyces pombe [DSM 70572], Rhodotorula glutinis [DSM 10134], and Wickerhamomyces anomalus [DSM 6766], as well as various Gram-positive: Staphylococcus aureus [DSM 346], Bacillus subtilis [DSM 10], Mycolicibacterium smegmatis [ATCC 700084], and Gram-negative bacteria: Acinetobacter baumanii [DSM 30008], Escherichia coli [DSM 1116], Chromobacterium violaceum [DSM 30191], and Pseudomonas aeruginosa [PA14]. In our experiments, gentamicin served as the positive control against most bacteria, while nystatin acted as the positive control against all fungi. For specific microorganisms, namely A. baumannii, B. subtilis, and M. smegmatis, ciprofloxacin, oxytetracycline, and kanamycin were used as positive controls, respectively.

[5] = system: Bacillus subtilis [DSM 10]; test: Serial dilution assay (MIC); assay type: cell-based; conditions: DSM10, read-out: MIC
Protocol: as §2

[6] = system: Acinetobacter baumanii [DSM 30008]; test: Serial dilution assay (MIC); assay type: cell-based; conditions: Acinetobacter baumannii, DSM30008
Protocol: as §2

[7] = system: Staphylococcus aureus [DSM 346]; test: Serial dilution assay (MIC); assay type: cell-based; conditions: DSM346, read-out: MIC
Protocol: as §2

[8] = system: Wickerhamomyces anomalus [DSM 6766]; test: Serial dilution assay (MIC); assay type: cell-based; conditions: Hansenula anomala, DSM6766
Protocol: as §2

[9] = system: Rhodotorula glutinis [DSM 10134]; test: Serial dilution assay (MIC); assay type: cell-based; conditions: DSM10134
Protocol: as §2

[10] = system: Chromobacterium violaceum [DSM 30191]; test: Serial dilution assay (MIC); assay type: cell-based; conditions: DSM30191, read-out: MIC
Protocol: as §2

[11] = system: Mycolicibacterium smegmatis [ATCC 700084]; test: Serial dilution assay (MIC); assay type: cell-based; conditions: Mycolicibacterium smegmatis, ATCC700084; Mycobacterium smegmatis; read-out: MIC
Protocol: as §2

[12] = system: Mucor hiemalis [DSM 2656]; test: Serial dilution assay (MIC); assay type: cell-based; conditions: DSM2656, read-out: MIC
Protocol: as §2

[13] = system: Escherichia coli [DSM 1116]; test: Serial dilution assay (MIC); assay type: cell-based; conditions: DSM1116, read-out: MIC
Protocol: as §2

[14] = system: Candida albicans [DSM 1665]; test: Serial dilution assay (MIC); assay type: cell-based; conditions: DSM1665, read-out: MIC
Protocol: as §2

[15] = system: Schizosaccharomyces pombe [DSM 70572]; test: Serial dilution assay (MIC); assay type: cell-based; conditions: DSM70572
Protocol: as §2

S. aureus = system: S. aureus; design: method as in doi:10.1016/j.phytol.2021.03.003; conditions: cited from earlier work
[16] = system: lung cancer (A-549) cell line; test: Cytotoxicity assay, A549; assay type: cell-based; conditions: Homo sapiens, 120 h; A549 (lung), 5 days of incubation; read-out: IC50
[17] = system: breast cancer (MCF-7) cell line; test: Cytotoxicity assay, MCF-7; assay type: cell-based; conditions: Homo sapiens, MCF7, 120 h; MCF-7 (breast), 5 days of incubation; read-out: IC50
Curvularia lunata = system: Curvularia lunata; design: method as in doi:10.1016/j.phytol.2021.03.003; conditions: cited from earlier work

| MIC [4] | MIC [5] | MIC [6] | MIC [7] | MIC [8] | MIC [9] | MIC [10] | MIC [11] | MIC [12] | MIC [13] | MIC [14] | MIC [15] | Compound | IC50 ([1]; Mus musculus, L929, 120 h) | inhibitory activity on S. aureus biofilm formation (in words) [2] | inhibition at 7.8 µg/mL [2] | inhibition at 15.62 µg/mL [2] | inhibition at 31.25 µg/mL [2] | inhibition at 62.5 µg/mL [2] | inhibition at 125 µg/mL [2] | IC50 ([3]; Homo sapiens, KB 3-1, 120 h) | other results |
| --- | --- | --- | --- | --- | --- | --- | --- | --- | --- | --- | --- | --- | --- | --- | --- | --- | --- | --- | --- | --- | --- |
| > 67 µg/mL | > 67 µg/mL | > 67 µg/mL | > 67 µg/mL | > 67 µg/mL | > 67 µg/mL | > 67 µg/mL | > 67 µg/mL | > 67 µg/mL | > 67 µg/mL | > 67 µg/mL | > 67 µg/mL | CCC(C)/C=C(C)/C=C/C(=O)C1=C(O)[C@H]([C@H](O)c2ccc(O)cc2)NC1=O (stereo partly shown) [Compound 2, Prototenellin D] | 70.1 µM | promising activities in a dose-dependent manner | 53 ± 7% | 56 ± 8% | 80 ± 10% | 83 ± 9% | 84 ± 17% | 64.7 µM | IC50 (µM) [1]: weak or no activity; Biofilm inhibition (% ± SD) ([2]; listed as prototenellin D (2)): more than 50%; IC50 (µM) [3]: weak or no activity |
| > 67 µg/mL | 66.6 µg/mL (≈ 173 µM) | > 67 µg/mL | 66.6 µg/mL (≈ 173 µM) | > 67 µg/mL | > 67 µg/mL | > 67 µg/mL | > 67 µg/mL | > 67 µg/mL | > 67 µg/mL | > 67 µg/mL | > 67 µg/mL | CCC(/C=C(C)/C=C/C(=O)c1c(O)c(-c2ccc(O)cc2)cn(O)c1=O)CO (stereo not shown) [Compound 5, 15-Hydroxytenellin] | 4.9 to 6.8 µM |  |  | 47 ± 12% | 78 ± 5% | 85 ± 2% | 86 ± 1% | 4.9 to 6.8 µM | IC50 [1]: 6.8 µM; IC50 [16]: 2.6 µM; IC50 [3]: 6 µM; IC50 [17]: 8.1 µM |

| Compound | MIC [4] | MIC [5] | MIC [6] | MIC [7] | MIC [8] | MIC [9] | MIC [10] | MIC [11] | MIC [12] | MIC [13] | MIC [14] | MIC [15] | IC50 ([1]; Mus musculus, L929, 120 h) | inhibitory activity on S. aureus biofilm formation (in words) [2] | inhibition at 7.8 µg/mL [2] | inhibition at 15.62 µg/mL [2] | inhibition at 31.25 µg/mL [2] | inhibition at 62.5 µg/mL [2] | inhibition at 125 µg/mL [2] | IC50 ([3]; Homo sapiens, KB 3-1, 120 h) | other results |
| --- | --- | --- | --- | --- | --- | --- | --- | --- | --- | --- | --- | --- | --- | --- | --- | --- | --- | --- | --- | --- | --- |
| CCC(C)/C=C(C)/C=C/C(=O)c1c(O)c(-c2ccc(O)cc2)cn(O)c1=O (stereo not shown) [Compound 4, Tenellin] | > 67 µg/mL | 8.3 µg/mL (≈ 22.5 µM) | > 67 µg/mL | 16.6 µg/mL (≈ 44.9 µM) | > 67 µg/mL | > 67 µg/mL | > 67 µg/mL | > 67 µg/mL | 66.6 µg/mL (≈ 180 µM) | > 67 µg/mL | 66.6 µg/mL (≈ 180 µM) | > 67 µg/mL | 0.79 µM | promising activities in a dose-dependent manner | 36 ± 13% | 51 ± 19% | 73 ± 15% | 80 ± 4% | 78 ± 5% | 0.79 µM | MIC (S. aureus): 6.25 µg/mL (≈ 16.9 µM); IC50 [16]: 0.24 µM; Biofilm inhibition (% ± SD) ([2]; listed as tenellin (4)): ca. 30%; IC50 [17]: 2 µM; MIC (Curvularia lunata): 3.13 µg/mL (≈ 8.47 µM) |
